These results are taken from US11850234B2, “Enhancement of cancer treatment efficiency via the sphingosine-1-phosphate pathway” (priority 2017, dated 2023).

The structures appear in SMILES notation.

In series [1] the test system is breast cancer metastatic cell line. To be noted: 10 μM of S1P co-administered; cited from earlier work.
In series [2] the test system is pancreatic adenocarcinoma. Nature of the series: Overall survival of pancreatic adenocarcinoma patients under gemcitabine chemotherapy, by plasmatic S1P concentration. It counts as in vivo, human.
Series [3] concerns CAM-grafted pancreas, lung and ovarian tumors. Description: Neoadjuvant effect in the CAM (Chicken Chorioallantoic Model) with grafted tumors. The series is classed as in vivo. The settings on record: compared to CAM-grafted tumors not previously treated with the neoadjuvants. As to the method: The neoadjuvant effect of benzylphthalazine and imidazole derivatives according to the present invention are assessed for their neoadjuvant effect against pancreas, lung and ovarian tumors.
The neoadjuvant effect is evaluated using the CAM (Chicken Chorioallantoic Model) as described by Sliwinska et al. (Sliwinska et al., Angiogenesis, 2014, 14(4), 779-804).

In the case of `CCCCCCCCCCCCC/C=C/[C@@H](O)[C@@H](N)COP(=O)(O)O` [S1P, Sphingosine-1-phosphate], the “effect on cytotoxicity of docetaxel, doxorubicin and cyclophosphamide” value in series [1] is given as “increased the cytotoxicity”.

Take `Nc1ccn([C@@H]2O[C@H](CO)[C@@H](O)C2(F)F)c(=O)n1` [gemcitabine]: the overall survival median entry in series [2] (conventional gemcitabine chemotherapy, plasmatic S1P higher than 650 nM versus lower, FIG. 3) was “better overall survival median”. This compound also registered an overall survival in series [2] (patients having a high plasmatic S1P concentration (>650 nM), FIG. 5) of 12.3 months. For the same compound, the “cytotoxic effect against CAM-grafted tumors pretreated with neoadjuvant” value in series [3] is “enhanced”.

As for `CC(=O)O[C@H]1C(=O)[C@@]2(C)[C@H]([C@H](OC(=O)c3ccccc3)[C@]3(O)C[C@H](OC(=O)[C@H](O)[C@@H](NC(=O)c4ccccc4)c4ccccc4)C(C)=C1C3(C)C)[C@]1(OC(C)=O)CO[C@@H]1C[C@@H]2O` [paclitaxel], in series [3], the “cytotoxic effect against CAM-grafted tumors pretreated with neoadjuvant” value is listed as “enhanced”.
